Data reported in a melting point compilation (Tetko et al.; mined from patent text by program, amines drawn as free bases though some values may be those of a salt).

| Structure (SMILES) | melting point |
| --- | --- |
| CC(C)(C)c1ccc(S(=O)(=O)N(Cc2cc(C(C)(C)C)c(O)c(C(C)(C)C)c2)c2cccnc2)cc1 | 155 to 156 °C |
| COC(=O)c1cc([N+](=O)[O-])ccc1CS(N)(=O)=O | 167 to 170 °C |
| COc1ccc(Br)c(C(=NNS(=O)(=O)c2ccccc2)N2CCN(C)CC2)c1 | 141 to 145 °C |
| CC(C)(C)OC(=O)N[C@@H]1CN[C@H]2CCCO[C@H]21 (relative stereo) | 110 to 111 °C |
| COC(=O)CCc1cc2cc(C(C)=O)ccc2n1S(=O)(=O)c1ccccc1 | 122 to 127 °C |
| CCCCCCCCCCCCSC(=S)SC(C)(C#N)CCC(=O)O (configuration not stated) | 58 to 59 °C |
| CCCCCCC1CCC(=O)N1c1ccc(Cl)c(NC2=NN(c3c(Cl)cc(Cl)cc3Cl)C(=O)C2)c1 (configuration not stated) | 224 to 227 °C |
| COc1cc(C(=O)N2Cc3cccn3Cc3ccccc32)ccc1-c1ccccc1C(F)(F)F | 146 to 148 °C |
| Nc1cc(=O)[nH]c2ccccc12 | > 250 °C |
| O=C(Cc1ccc2c(c1)OCO2)N[C@H]1CC[C@H](CCN2CCN(c3nccc4c3OCC4)CC2)CC1 | 187 °C |
| Cn1nc(Cl)c(C2=NOCCO2)c1S(N)(=O)=O | 158 °C |
| COC(=O)CCC(C)C1CCC2C3CCC4CCCCC4(C)C3CCC12C (configuration not stated) | 87 °C |
| CCOC(=O)CCC1Cc2cc(O)ccc2NC1=O (configuration not stated) | 138 °C |
| COc1c(F)cc(Cn2cc[nH]c2=S)cc1F | 156 to 158 °C |
| COC(=O)c1c(-c2ccc(OC)cc2)ccc2ccccc12 | 115 to 116 °C |
| CC(C)NCC(O)COc1ccc(-c2oc3ccccc3c2C(=O)c2ccccc2)cc1 (configuration not stated) | 53 to 59 °C |
| Cn1nnnc1S(=O)(=O)Cc1ccccc1 | 122 to 125 °C |
| CCCCN(Cc1ccc(-c2ccccc2-c2nnnn2C(c2ccccc2)(c2ccccc2)c2ccccc2)cc1)c1nc(C)ccc1C(=O)OCC | 120 to 122 °C |
| O=C(Nc1n[nH]c(=S)s1)N[C@@H](Cc1ccccc1)C(=O)N1CCN(c2ncccn2)CC1 | 235 to 237 °C |
| COc1ccc2c(Cc3c(Cl)cncc3Cl)nncc2c1 | 173 to 175 °C |
| CS(=O)(=O)N1CCN(c2ccc(C(=O)CCc3ccc(N)cc3)cc2)CC1 | 166 to 170 °C |
| Cc1ccc2c(c1)C=Cc1cc(C)ccc1C2c1cn(-c2ncc(C(=O)O)c(NCC(=O)O)n2)c(=O)[nH]c1=O | 271 °C |
| O=C(CC1CCCCC1=O)c1ccc(Br)cc1 (configuration not stated) | 78 to 80 °C |
| Cc1cc(SC2=C(O)CC(CCc3ccc(O)cc3)(C3CCCCC3)OC2=O)c(C(C)(C)C)cc1OS(=O)(=O)c1ccccc1 (configuration not stated) | 180 °C |
| CCOc1nn(C(=O)NS(=O)(=O)c2c(Cl)cccc2SC)c(=O)n1C | 144 °C |

| Structure (SMILES) | melting point |
| --- | --- |
| CC(C)N(C(C)C)S(=O)(=O)NC(=O)c1nsc2ccc(-n3c(=O)cc(C(F)(F)F)n(C)c3=O)cc12 | 214 °C |
| COc1ccc(/C=C/CCCCO)cc1 | 66 °C |
| CSC(=NS(=O)(=O)c1ccccc1-c1ccccc1)SC | 115 to 117 °C |
| CCOC(=O)CC(NC(=O)c1cc(N)ccc1OCCOC)c1ccccc1 (racemic) | 105 to 106 °C |
| OCC1CCC(N2CCC(=C3c4ccc(F)cc4Sc4ccc(C(F)(F)F)cc43)CC2)CC1 (configuration not stated) | 208 to 211 °C |
| CCOC(=O)N1CCC(=C2c3ccccc3C=Cc3ccccc32)CC1 | 123 to 124 °C |
| COC1(c2ccc(C(C)C)cc2O)C(=O)c2ccccc2C1=O | 272 to 274 °C |
| CNS(=O)(=O)c1cn(C)c2c(OC)c(OC)c(OC)cc2c1=O | 184 to 186 °C |
| CCN1C(=O)SC(Cc2ccc(N)cc2)C1=O (configuration not stated) | 103 to 104 °C |
| CC1CN(c2ccc(Nc3cc(Br)cn(C)c3=O)nc2)C1 | 135 to 136 °C |
| CC(=O)NS(=O)(=O)c1ccc2ccc(Oc3c(Cl)cc(C(F)(F)F)cc3Cl)cc2c1 | 137 °C |
| CC(CC(=O)c1ccc(Br)cc1)C(=O)N1CCCC1C(=O)O (configuration not stated) | 136 to 138 °C |
| O=C1NC(=O)c2c(Sc3ccc([N+](=O)[O-])cc3)c(Sc3ccc([N+](=O)[O-])cc3)c(Sc3ccc([N+](=O)[O-])cc3)c(Sc3ccc([N+](=O)[O-])cc3)c21 | 297 to 301 °C |
| CC(C)S(=O)(=O)c1cccc(-c2nc(=O)c3ccccc3s2)n1 | 205 to 206 °C |
| CC(=O)Nc1cccc2c1C(=O)c1c-2n[nH]c1-c1ccc(N(C)C)cc1 | > 300 °C |
| CC(C)(C)OC(=O)CNC(=S)Nc1cccc(C#N)c1 | 131 to 132 °C |
| O=C(O)C1=Cc2cc(Cl)c(Cl)c(Cl)c2OC1C(F)(F)F (configuration not stated) | 222 to 225 °C |
| CCNC(=S)NS(=O)(=O)c1cc(CCNC(=O)c2cc(Cl)ccc2OC)ccc1-c1ccccc1 | 168 to 170 °C |
| COC(=O)CC(NCCCN(C)C)C(=O)O (configuration not stated) | 171 to 172 °C |
| CC(=O)OC1CCC2(C)C(CCC3C4CC5OC6(CC(C)C(C)(C)O6)C(C)(O)C5C4(C)CC(O)C32)C1 (configuration not stated) | 194 to 195 °C |
| Cc1ccc(F)c(C(C)Oc2ccc3nc(-c4ccccc4OC(N)=O)sc3c2)c1Cl (configuration not stated) | 205 °C |
| CC(C)(C)N(Cc1ccccc1)NC(=O)c1ccco1 | 152 °C |
| C=CCc1cc(C(N)=NO)ccc1O | 144 °C |
| Cc1nc(N)nc(N)c1-c1cccc2ccccc12 | 224 to 225 °C |
| NNc1ccc([N+](=O)[O-])cc1S(N)(=O)=O | 209 to 210 °C |

| Structure (SMILES) | melting point |
| --- | --- |
| Cc1cccc(CC(=O)O)c1OCCCc1cc(OC(C)C)nn1Cc1ccc(Cl)cc1Cl | 70 to 71 °C |
| CCCCCCCCCCCC1=NCCN1CCCCO | 58 to 60 °C |
| CCCN(c1cccc(-c2ccnc3c([N+](=O)[O-])cnn23)c1)S(=O)(=O)c1ccc(OC)cc1 | 184 to 185 °C |
| CCCCC1(C2CCCC2)Cc2cc(OCC(=O)O)c(Cl)c(Cl)c2C1=O (configuration not stated) | 173 to 174 °C |
| O=C(O)CCN1CCN2c3ccccc3Sc3ccccc3C2C1 (configuration not stated) | 218 to 220 °C |
| Cn1cnnc1COc1nn2c(-c3ccccc3F)nnc2cc1C1CCC1 | 228 °C |
| O=C(CF)CCCN1C(=O)c2ccccc2C1=O | 92 °C |
| CC(=O)Nc1c(C(=O)c2ccc(O)c(O)c2)[nH]c2cc(Cl)ccc12 | 193 to 200 °C |
| O=C(c1ccc2c(=O)n(CCCCN3CC=C(c4ccccc4)CC3)c(=O)[nH]c2c1)N1CCOCC1 | 206 to 210 °C |
| Nc1ccc(N2C(=O)CCCC2c2ccc(Cl)c(Cl)c2)cc1 (configuration not stated) | 177 to 178 °C |
| CCCCc1ncc(CC(Cc2ccccc2)C(=O)OC)n1Cc1ccccc1Cl (configuration not stated) | 118 to 120 °C |
| CSc1cc(NCc2nc3ccccc3o2)c(=O)[nH]c1C | 180 to 181 °C |
| CC(=O)Oc1ccc(C(=O)O)cc1C(C)(C)C | 123 to 125 °C |
| CCCCCCCCCC(O)CNCCNCC(O)CCCCCCCCC (configuration not stated) | 130 to 138 °C |
| CNS(=O)(=O)c1ccccc1Nc1nc(Nc2ccc3c(c2)CCCC(=O)N3CC(=O)N2CCN(C)CC2)ncc1Cl | 148 to 151 °C |
| Cc1ccc(-c2c[nH]c(-c3ccc4c(c3)C(C)(C)CCC4(C)C)c2)cc1 | 190 to 192 °C |
| N#Cc1ccc2ccnc(N)c2c1 | 183 to 186 °C |
| COC1=NS(=O)(=O)N(Cc2ccccc2)C(N)=N1 | 141 to 144 °C |
| COc1ccc(C2=NN(C3CCN(C(=O)CN4C(=O)c5ccccc5C4=O)CC3)C(=O)C(C)(C)C2)cc1OC | 193 to 194 °C |
| CCCc1c(OCC(O)COc2ccc(CC(=O)O)cc2F)ccc(C(C)=O)c1O (configuration not stated) | 137 to 138 °C |
| CC(C)(C)OC(=O)Nc1cc(N2CCC(OCCOC3CCCCO3)CC2)c(-c2ccc(F)cc2)cc1[N+](=O)[O-] (racemic) | 144 to 146 °C |
| COc1cc2c(cc1OCc1ccccc1)CCN(C(=O)c1cc(OC)c(OC)c(OC)c1)C2=O | 195 to 196 °C |
| CCOC(=O)C1CCN(c2nc(COc3ccc(CO)cc3OC)c(C)s2)CC1 | 84 to 85 °C |
| CCCCOC(=O)C1Oc2ccccc2Cc2ccccc2O1 | 63 to 66 °C |
| CCOC(=O)c1ccc(OC)nc1C(F)(F)F | 150 to 152 °C |

| Structure (SMILES) | melting point |
| --- | --- |
| NC(CCO)C(=O)Nc1ccc(Cl)cc1Cl (configuration not stated) | 89 to 91 °C |
| CCOc1ccc(-c2nc(C3=CCN(C)CC3)cs2)cc1OCC | 81.2 to 83.6 °C |
| Nc1ncnc2c1c(-c1cc(O)cc(F)c1)nn2Cc1oc2ccccc2c(=O)c1-c1cccc(F)c1 | 235 to 237 °C |
| CC(C)(CNc1ccnc2cc(Cl)ccc12)NCc1ccc(Cl)c(C(F)(F)F)c1 | 158 to 160 °C |
| CC(C)C(=O)Oc1cccc2c1C(=O)c1c(O)cccc1C2C(=O)C1CCCCC1 (configuration not stated) | 146 °C |
| CC[C@]12CC[C@H]3[C@@H](CC(C)C4=CC(=O)CC[C@@H]43)[C@@H]1CCC2=O (some centres not stated) | 141 to 149 °C |
| CNc1ccccc1CS(=O)c1nccn1-c1cc(C)ccn1 (configuration not stated) | 112 to 114 °C |
| N#CCCSN1C(=O)COCC1=O | 121 to 122 °C |
| NC(=O)c1nc(-c2cccc(O)c2)nc2c1[nH]c(=O)n2-c1c(F)cccc1F | 355 to 358 °C |
| CN1CCN(c2ccc(C#N)nn2)CC1 | 149 °C |
| CC(C#N)=CCN1C(=O)c2ccccc2S1(=O)=O | 107 to 108 °C |
| COC(=O)CCCCNC(=NC(=O)OCc1ccccc1)NC(=O)OCc1ccccc1 | 36 to 39 °C |
| CC(C)(C)OC(=O)CC1CCNC(=O)c2ccccc21 (configuration not stated) | 126 to 127 °C |
| CSC(=NC(=O)c1ccccc1)Nc1c(Cl)cccc1Cl | 127 to 129 °C |
| COC(=O)c1[nH]c2ccc(OC)cc2c1SC | 128 to 130 °C |
| Cn1cc(C2=C(c3cn(CCCN=C=S)c4ccccc34)C(=O)NC2=O)c2ccccc21 | 219 to 221 °C |
| CC(C)=NNc1ccnc2c(NC(=O)c3c(Cl)cccc3Cl)cc(C)cc12 | 242 to 245 °C |
| CC(C)N(CCN1C(=O)C(=O)c2cc(Cl)ccc21)C(C)C | 99 to 101 °C |
| O=C(Nc1ccc(-n2nc(C(F)(F)F)cc2Br)cc1)c1ccncc1Cl | 79 to 82 °C |
| O=C(Nc1ccc(C(F)(F)F)cc1)Nc1ccc2ncccc2c1 | 259 to 263 °C |
| CC(C)(C)OC(=O)n1c([Si](C)(C)C)cc2cnccc21 | 112 °C |
| O=C1NC(=S)S/C1=C\c1ccccc1Nc1cccc(C(F)(F)F)c1 | 234 to 236 °C |
